Source: US4076947A, “Cycloalkyl and cycloalkenyl prostaglandin congeners” (American Cyanamid Company, priority 1977, dated 1978)
Where two headings read alike, the source gives them in different places.

Experiments:
Format in all cases: in vivo
[1] = test system: bronchospasms elicited by intravenous injections of 5-hydroxytryptamine; experiment: Bronchodilator activity, Konzett procedure, against 5-hydroxytryptamine; settings: Cavia porcellus, three logarithmic cumulative intravenous doses, guinea pigs, read-out: ED50, spasmogenic agent 5-hydroxytryptamine
Protocol: (§1) Bronchodilator activity was determined in guinea pigs against bronchospasms elicited by intravenous injections of 5-hydroxytryptamine, histamine or acetylcholine by the Konzett procedure. [See J. Lulling, P. Lievens, F. El Sayed and J. Prignot, Arzneimittel-Forschung, 18, 995 (1968)].
(§2) In the Table which follows bronchodilator activity for representative compounds of this invention against one or more of three spasmogenic agents is expressed as an ED50 determined from the results obtained with three logarithemic cumulative intravenous doses.

[2] = test system: bronchospasms elicited by intravenous injections of acetylcholine; experiment: Bronchodilator activity, Konzett procedure, against acetylcholine; settings: Cavia porcellus, three logarithmic cumulative intravenous doses, guinea pigs, read-out: ED50, spasmogenic agent acetyl choline
Protocol: as §1, §2

[3] = test system: bronchospasms elicited by intravenous injections of histamine; experiment: Bronchodilator activity, Konzett procedure, against histamine; settings: three logarithmic cumulative intravenous doses, guinea pigs
Protocol: as §1, §2

[4] = test system: ulcerogenic properties of indomethacin; experiment: Protection against indomethacin-induced gastric ulcers in rats (ulcer score); settings: total oral dose 6.25 mg./kg. in two halves; indomethacin 20 mg./kg. s.c.; scale 0-4; control score 3.0; lowering by 0.5 or more = active
Excerpt: The novel compounds of the present invention have potential utility as hypotensive agents, anti-ulcer agents, agents for the treatment of gastric hypersecretion and gasteric erosion, bronchodilators, abortifacients, agents for the induction of labor, agents for the induction of menses, fertility-controlling agents, central nervous system regulatory agents, salt and water-retention regulatory agents, diuretics, fat metabolic regulatory agents, serum-cholesterol lowering agents, anti-inflammatory agents and as agents for the inhibition of platelet aggregation. […] The compounds of this invention provide protection against the ulcerogenic properties of indomethacin. A measure of this utility which also measures potential anti-ulcer properties is the assay which follows.
Rats were starved for 48 hours (water was given ad libitum). Indomethacin (20 mg./kg. of body weight) was administered by the subcutaneous route and one-half the dose of the test compound was administered by gavage at the same time. After three hours, the second half of the test compound was administered also by gavage. Five hours after the administration of indomethacin the animals were decapitated and the stomachs removed. The stomachs were washed with distilled water, blotted on gauze, cut along the larger curvature, and the contents rinsed with distilled water. […]

Row | SMILES | ED50 [1] | ED50 [2] | Score, Treated [4] | further results
1 | O=C(O)CCCCCCC1C(=O)CC(O)C1C=CC(O)CC1CCCC1 (stereo not drawn) [d,l 9-oxo-11α,15-dihydroxy-17,20-methano-13-trans-prostenoic acid] | 0.0018 mg/kg | 0.0013 mg/kg | – | –
2 | O=C(O)CCCCCCC1C(=O)CC(O)C1C=CC(O)CC1CCCC1 (stereo not drawn) [d,l 9-oxo-11α,15-epi-dihydroxy-17,20-methano-13-trans-proste] [d,l 9-oxo-11α,15-epi-dihydroxy-17,20-methano-13-trans-prostenoic acid] | – | – | 2.3 | ED50, spasmogenic agent histamine ([3]; listed as d,1-9-oxo-11α-15-epi-dihydroxy-17,20-methano-13-trans-prostenoic acid): 0.042 mg/kg
3 | O=C(O)CCCCCCC1C(=O)CC(O)C1C=CC(O)CC1CCCC1 (stereo not drawn) [d,l 9-oxo-11α,15-dihydroxy-17,20-methano-13-trans-prostenoic] [d,l 9-oxo-11α,15-dihydroxy-17,20-methano-13-trans-prostenoic acid] | – | – | 1.5 | ED50, spasmogenic agent histamine ([3]; listed as d,1-9-oxo-11α-15-dihydroxy-17,20-methano-13-trans-prostenoic acid): 0.000444 mg/kg
4 | O=C(O)CCCCCCC1C(=O)CC(O)C1C=CC(O)CC1CCCC1 (stereo not drawn) [d,l 9-oxo-11α,15-epi-dihydroxy-17,20-methano-13-trans-prostenoic acid] | – | – | – | ED50 ([1]; no power of ten printed): 0.228 mg/kg
5 | O=C(O)CCCCCCC1C(=O)C=CC1C=CC(O)CC1CCCC1 (stereo not drawn) [d,1-9-oxo-15-hydroxy-17,20-methano-10,13-trans-prostadienoic acid] | 0.0546 mg/kg | 0.292 mg/kg | – | ED50 ([3]; Cavia porcellus, iv, read-out: ED50, spasmogenic agent histamine): 0.041 mg/kg
